Laboratory results from patent publication US20050239753A1, “Methods of inhibition of MMTV-like viruses” (GILEAD SCIENCES, INC., priority 2004, published 2005).

Key:
MMTV RT [1] = biological target: T1, MMTV RT (Mouse mammary tumor virus, UniProt P03365); assay: MMTV RT activity, filter-based [33P]dNTP incorporation assay on lysed MMTV particles; type: biochemical; set-up: MMTV particles were isolated and concentrated from MM5MT cells (ATCC) after induction with dexamethasone and insulin; host or cells: MM5MT cells (virus-producing mouse mammary tumour line), induced with dexamethasone and insulin; lysed virions; conditions: for potency against MMTV RT relative to 3TCppp: more potent than 3TCppp
T1 sequence (P03365 861-1436): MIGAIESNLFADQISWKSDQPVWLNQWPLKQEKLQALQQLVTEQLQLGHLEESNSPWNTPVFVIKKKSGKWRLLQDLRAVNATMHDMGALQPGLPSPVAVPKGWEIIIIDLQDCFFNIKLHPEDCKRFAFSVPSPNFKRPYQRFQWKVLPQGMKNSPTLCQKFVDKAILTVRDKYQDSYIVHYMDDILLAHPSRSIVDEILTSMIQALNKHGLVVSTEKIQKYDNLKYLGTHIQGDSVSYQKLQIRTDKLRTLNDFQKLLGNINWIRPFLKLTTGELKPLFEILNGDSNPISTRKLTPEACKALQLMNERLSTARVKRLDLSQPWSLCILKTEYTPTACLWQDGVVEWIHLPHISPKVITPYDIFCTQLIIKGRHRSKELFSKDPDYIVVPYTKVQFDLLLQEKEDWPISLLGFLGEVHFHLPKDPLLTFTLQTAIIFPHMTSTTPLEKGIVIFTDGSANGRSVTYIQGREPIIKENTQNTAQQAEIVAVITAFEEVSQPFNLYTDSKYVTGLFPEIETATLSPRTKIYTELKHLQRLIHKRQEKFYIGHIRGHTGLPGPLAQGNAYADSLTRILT
Method: MMTV particles were isolated and concentrated from MM5MT cells (ATCC) after induction with dexamethasone and insulin as previously described (Fine, D., et al., In Vitro 12:693-701, 1976). Lysed particles were assayed for RT activity using a standard filter-based, [^33P]dNTP incorporation assay (modified from Wu, J., et al., J. Biol. Chem. 268:9980-9985, 1993). Inhibition of the RT activity was measured by adding the test compounds, the acyclic nucleoside diphosphophosphonates and cyclic nucleoside triphosphates, at various concentrations and 50% inhibitory concentrations (IC50) were calculated for each compound. All compounds tested were active against the MMTV RT. […] The activity of AZTppp against the MMTV RT as previously observed was confirmed with an IC50 value of 0.4 μM.

MMTV RT [2] = biological target: T1, MMTV RT; conditions: cited from earlier work

| SMILES | IC50 (MMTV RT [1]) [µM] | direct inhibition of the MMTV RT enzyme compared with HIV RT enzyme (MMTV RT [2]) | activity against the MMTV RT (MMTV RT [1]) | potency against MMTV RT relative to 3TCppp (MMTV RT [1]) [fold] |
| --- | --- | --- | --- | --- |
| Nc1ccn([C@@H]2CS[C@H](COP(=O)(O)OP(=O)(O)OP(=O)(O)O)O2)c(=O)n1 [3TCppp, reference compound] | 108 |  |  |  |
| Cc1cn([C@H]2C[C@H](N=[N+]=[N-])[C@@H](COP(=O)(O)OP(=O)(O)OP(=O)(O)O)O2)c(=O)[nH]c1=O [AZTppp, reference compound] | 0.4 | as efficiently as the HIV RT enzyme |  |  |
| Nc1nc(=O)n([C@@H]2CS[C@H](COP(=O)(O)OP(=O)(O)OP(=O)(O)O)O2)cc1F [FTCppp, reference compound] | 44 |  |  |  |
| Nc1ncnc2c1ncn2CCOCP(=O)(O)OP(=O)(O)OP(=O)(O)O [PMEApp] | ~4 |  | active | 25 |
| C[C@H](Cn1cnc2c(N)ncnc21)OCP(=O)(O)OP(=O)(O)OP(=O)(O)O [PMPApp] | ~4 |  | active | 25 |
